Where two headings read alike, the source gives them in different places.
Molecular target: T1, human PD-L1 (293T-hPD-L1 cells; binding of PE-labeled PD-1-Ig) (Homo sapiens, UniProt Q9NZQ7)
T1 construct: expressed in transfected cells; host or cells: 293T (human embryonic kidney) stably over-expressing human PD-L1
Test: 293T-hPD-L1 Cell Binding High-Content Screening Assay (CBA)
Protocol: 293T-hPD-L1 Cell Binding High-Content Screening Assay (CBA).
Phycoerythrin (PE) was covalently linked to the Ig epitope tag of human PD-1-Ig and fluorescently-labeled PD-1-Ig was used for binding studies with a human embryonic kidney cell line (293T) stably over-expressing human PD-L1 (293T-hPD-L1). Briefly, 2×10^3 293T-hPD-L1 cells were seeded into 384 well plates in 20 μl of DMEM supplemented with 10% fetal calf serum and cultured overnight. 125 nl of compound was added to cells followed by 5 μl of PE-labeled PD-1-Ig (0.5 nM final), diluted in DMEM supplemented with 10% fetal calf serum, followed by incubation at 37° C. for 1 h. Cells were washed 3× in 100 μl dPBS followed by fixation with 30 μl of 4% paraformaldehyde in dPBS containing 10 μg/ml Hoechst 33342 for 30 min at room temperature. Cells were washed 3× in 100 μl of dPBS followed by final addition of 15 μl of dPBS. Data was collected and processed using a Cell Insight NXT High Content Imager and associated software.
Table 1 lists the IC50 values for representative examples of this disclosure measured in the 293T-hPD-L1 Cell Binding High-Content Screening Assay.

T1 sequence (Q9NZQ7 19-290): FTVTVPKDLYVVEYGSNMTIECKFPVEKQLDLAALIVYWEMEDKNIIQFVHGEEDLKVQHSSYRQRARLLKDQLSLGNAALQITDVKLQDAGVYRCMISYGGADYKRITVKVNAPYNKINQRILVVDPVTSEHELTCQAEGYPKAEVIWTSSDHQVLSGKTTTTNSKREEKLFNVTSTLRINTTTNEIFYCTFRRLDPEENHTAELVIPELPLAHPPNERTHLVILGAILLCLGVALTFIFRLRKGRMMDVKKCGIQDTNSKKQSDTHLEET

| Structure (SMILES) | IC50 (293T cells stably over-expressing human PD-L1, PE-labeled human PD-1-Ig 0.5 nM final, 37° C. for 1 h, read-out: 293T-hPD-L1_PD-1 IC50) [nM] | IC50 [nM] |
| --- | --- | --- |
| CCCC[C@H]1C(=O)N(C)[C@@H](CCCC)C(=O)N[C@@H](CC(C)C)C(=O)N[C@H](C(=O)NCC(=O)N[C@@H](Cc2cn(CCOCCOCCOCCOCCOCCOCCOCCOCCOCCOCCOCCNC(=O)CC[C@H](NC(=O)CCCCCCCCCOc3ccc(C(=O)O)cc3)C(=O)O)nn2)C(=O)O)CSCC(=O)N[C@@H](Cc2ccc(O)cc2)C(=O)N(C)[C@@H](C)C(=O)N[C@@H](CC(N)=O)C(=O)N2CCC[C@H]2C(=O)N[C@@H](CN)C(=O)N[C@@H](CC(C)C)C(=O)N2C[C@H](O)C[C@H]2C(=O)N[C@@H](Cc2c[nH]c3ccccc23)C(=O)N[C@@H](CCN)C(=O)N[C@@H](Cc2cn(CC(=O)O)c3ccccc23)C(=O)N1C [Example 1001] | 3.3 | – |
| CCCC[C@H]1C(=O)N(C)[C@@H](CCCC)C(=O)N[C@@H](CC(C)C)C(=O)N[C@H](C(=O)NCC(=O)N[C@@H](Cc2cn(CCOCCOCCOCCOCCOCCOCCOCCOCCOCCOCCOCCNC(=O)CC[C@H](NC(=O)CCCCCCCCCCCOc3ccc(C(=O)O)cc3)C(=O)O)nn2)C(=O)O)CSCC(=O)N[C@@H](Cc2ccc(O)cc2)C(=O)N(C)[C@@H](C)C(=O)N[C@@H](CC(N)=O)C(=O)N2CCC[C@H]2C(=O)N[C@@H](CN)C(=O)N[C@@H](CC(C)C)C(=O)N2C[C@H](O)C[C@H]2C(=O)N[C@@H](Cc2c[nH]c3ccccc23)C(=O)N[C@@H](CCN)C(=O)N[C@@H](Cc2cn(CC(=O)O)c3ccccc23)C(=O)N1C [Example 1003] | – | 3.6 |
